Results published in patent EP4623928A1, “GLP-1R ANTAGONISTS FOR THE TREATMENT OF CANCER” (Fiorina, Paolo, priority 2024, dated 2025).

Tests used:
CD4^+ and CD8^+ T cells = experiment: Cell death and proliferation of CD4+ and CD8+ T cells in splenocytes activated with anti-CD3/anti-CD28 (FACS); format: cell-based, C57BL/6 mice
[1] = test system: mitogen-stimulated murine splenocytes; experiment: IFN-γ ELISpot assay on anti-CD3/anti-CD28 stimulated splenocytes; format: cell-based, C57BL/6 mice; details: Exe-9 added to Exe-4, 0.1, 1 or 10 nM, 24 hours
Method: An ELISPOT assay was used to measure the number of IFN-γ-producing cells according to the manufacturer's protocol (BD Biosciences) as previously performed by our group (39). To test the role of GLP-1R-driven immunity on the anti-CD3/28 non-autoimmune specific response, 1×10^6 splenocytes isolated from C57BL/6 mice were cultured in a microwell plate (BD Biosciences) coated with IFN-y capture antibody (Ab) in the presence of the following soluble anti-CD3 and anti-CD28 at 0,5ug/ml for 24 hours. Exe-4 and/or Exe-4+Exe-9-39 at concentrations of 0.1, 1 or 10 nM were added to the culture. After 24 hours, bound secondary Ab was visualized using HRP-streptavidin and the AEC substrate kit (BD Biosciences). Spots were counted using an Immunospot analyzer (Cellular Technology Ltd., Cleveland, OH) and expressed as the number of cytokine-producing spots per 1×10^6 cells. After 24hours, ELISpot plates were developed and acquired on an ELISpot reader, as previously described.

Cardiac allografts = experiment: Murine cardiac allotransplantation (BALB/c hearts into C57BL/6 mice); format: in vivo
Method: Cardiac allografts from BALB/c mice were transplanted intra-abdominally in C57BL/6 mice using microsurgical techniques as described (31). Rejection was determined as complete cessation of cardiac contractility and was confirmed by direct visualization. Transplanted mice were intraperitoneally injected according to the following protocols: 1) Exendin-4 (Exe-4) (Amylin Pharmaceuticals, San Diego, CA - USA) 0.2pg twice/day for two weeks after transplant; 2) Exe-4 0.2pg twice/day from the day before until two weeks after transplant; 3) Exe-4 2µg twice/day from the day before until two weeks after transplant; 4) Exe-4 2µg twice/day + Exendin-9-39 (Exe-9) (Sigma-Aldrich) 2µg twice/day from the day before until two weeks after transplant; 5) Exe-4 2µg twice/day from the day before until two weeks after transplant + Rapamycin 0.1mg/die for two weeks; 6) saline 0.5ml twice/day for two weeks.

[2] = test system: MC38 colorectal cancer cells; experiment: Colorectal tumour model (MC38 cells injected into the distal posterior rectum); format: in vivo, C57BL/6 mice
Method: Female C57BL/6 mice were anesthetized with 100 mg/kg of ketamine and 50 mg/kg of xylazine. Next, by using a 29-gauge syringe, 2×10^5 MC38 cells were injected submucosally into the distal posterior rectum in a final volume of […], as described previously (36, 37). MC38-injected mice were randomly assigned into 2 groups: (i) Exe-9-treated group (n=8), where all mice received an intraperitoneal injection of 2 µg of Exendin-9-39 (Exe-9) starting by Day1 for a total of 14 days; (ii) untreated-group (n=6), where all mice received an IP injection of PBS starting by day 1 and for a total of 14 days. Tumour growth was visually monitored daily. After animals' sacrifice, tumours were measured by a digital calliper measuring tumour length, width, and height and were weighted using a digital scale. Procedures involving mice wereb conformed to institutional guidelines in agreement with national and international law and were approved by the ethics committee by the Ministry of Health.

islet allografts = experiment: Murine islet allotransplantation (BALB/c islets into STZ-treated C57BL/6 mice); format: in vivo
Method: Pancreatic islets from BALB/c mice were isolated by collagenase digestion and density gradient separation as previously described (33, 34). Subsequently, four to five hundred islets were inoculated under the renal capsule of each C57BL/6 recipient rendered diabetic with streptozotocin (STZ) (200 mg/kg, administered i.p. Sigma-Aldrich). Islet transplantation success was confirmed by glycaemia normalization. Rejection of islet allografts was defined as blood glucose levels >250 mg/dl for at least 2 consecutive days (35). Treatment modalities were the following: transplanted mice were intraperitoneally injected according to the following protocols: 1) Exendin-4 (Exe-4) (Amylin Pharmaceuticals, San Diego, CA -USA) 0.2pg twice/day for two weeks after transplant; 2) Exe-4 0.2pg twice/day from the day before until two weeks after transplant; 3) Exendin-4 2µg twice/day from the day before until two weeks after transplant; 4) Exendin-4 2µg twice/day + Exendin-9-39 (Exe-9) (Sigma-Aldrich) 2µg twice/day from the day before until two weeks after transplant; 5) Exendin-4 2µg twice/day from the day before until two weeks after transplant + Rapamycin 0.1mg/die for two weeks; 6) saline 0.5ml twice/day for two weeks. The follow-up of the transplanted mice was for 100 days.

[3] = co-administration Exe-4 2µg twice/day + Exe-9 2µg twice/day
[4] = splenic, Exe-9 co-administration with Exe-4
[5] = 2 µg of Exe-9 once a day for 14 days, vs untreated
[6] = Exe-9-treated group vs untreated

Exendin-9-39 [Exe-9]
effect of Exe-9 on Exe-4-induced cell death (CD4^+ and CD8^+ T cells; Exe-9 added to Exe-4, anti-CD3/anti-CD28 activated splenocytes): reduced the effect
percentages of proliferating (or cell trace positive) CD4^+ and CD8^+ T cells (CD4^+ and CD8^+ T cells; addition of antagonist Exe-9 to Exe-4, anti-CD3/CD28 Abs (Fig. 13D-E)): No differences
effect of Exe-9 on the Exe-4-induced reduction of IFN-y producing cells [1]: significantly hampered the overseen immunoregulatory effect of Exe-4
effect of Exe-9 on the beneficial effects of Exe-4 (heart allograft survival) (Cardiac allografts; [3]): partly abolished
effect of Exe-9 on the Exe-4-induced decrease of graft infiltration (Cardiac allografts; day-7 heart allograft, Exe-9 co-administration with Exe-4): abolished
effect of Exe-9 on the Exe-4-induced decrease of CD4^+ and CD8^+ effector T cells (Cardiac allografts; [4]): reverted
tumour size ([2]; 2 µg of Exe-9 once a day for 14 days, intraperitoneal, vs untreated (PBS)): significantly reduced
colon length [2, 5]: no differences
mesenteric lymph nodes volume [2, 5]: significantly reduced
spleen weight [2, 5]: no differences
CD3^+ and CD8^+ effector memory T cells within the spleen and mesenteric lymph nodes [2, 6]: no major differences
tumor infiltration of CD3^+ T cells (FACS) [2, 6]: increased infiltration
tumor infiltration of activated effector memory CD8^+ T cells (FACS) [2, 6]: increased infiltration
intratumoral infiltration of CD3^+ T cells (pathological examination) ([2]; Exe-9-treated group vs untreated, immunohistochemistry): significant intratumoral infiltration
effect of Exe-9 on the beneficial effects of Exe-4 (islet allograft survival) (islet allografts; [3]): partly abolished
graft infiltration (Hematoxylin and eosin staining) (islet allografts; islet allograft at day 14, co-administration of Exe-9 with Exe-4): restored the graft infiltration
CD8^+ effector cell number (islet allografts; [4]): restored CD8^+ effector cell number
Tregs (islet allografts; [4]): did not affect Tregs
